The values below come from ChEMBL document CHEMBL3286289, “Synthesis and structure-activity relationship of non-phosphorus-based fructose-1,6-bisphosphatase inhibitors: 2,5-Diphenyl-1,3,4-oxadiazoles” (Eur J Med Chem, 2014).

Activity calls are given as the source filed them. No cut-off for these calls is given here.

Test [1] can be described thus: Inhibition of human recombinant FBPase-mediated fructose-6-phosphate formation by coupled spectrophotometric assay.
The test system of test [2] is Hepatocyte. Put plainly: Inhibition of gluconeogenesis in Sprague-Dawley rat hepatocytes assessed as decrease in glucose output at 40 uM after 4 hrs by colorimetric assay relative to control. Type of test: functional. Particulars: values are per cent of control.
In test [3] the test system is Hepatocyte. Put plainly: Inhibition of gluconeogenesis in Sprague-Dawley rat hepatocytes assessed as decrease in glucose output at 10 uM after 4 hrs by colorimetric assay relative to control. As to conditions: values are per cent of control. Type of test: functional.
Test [4] relates to Hepatocyte. Put plainly: Inhibition of gluconeogenesis in Sprague-Dawley rat hepatocytes assessed as decrease in glucose output at 20 uM after 4 hrs by colorimetric assay relative to control. Type of test: functional. Particulars: values are per cent of control.
Test [5] concerns Hepatocyte. Nature of the test: Inhibition of gluconeogenesis in Sprague-Dawley rat hepatocytes assessed as decrease in glucose output at 2 mM after 4 hrs by colorimetric assay relative to control. Type of test: functional. As to conditions: values are per cent of control.
Test [6] relates to Hepatocyte. Nature of the test: Inhibition of gluconeogenesis in Sprague-Dawley rat hepatocytes assessed as glucose output at 80 to 160 uM after 4 hrs by colorimetric assay. Type of test: functional, cell-based.

One may read the IC50 as the point on the concentration scale where inhibition reaches its midpoint. With `COc1ccc(CC(=O)Nc2cccc(-c3nnc(-c4cccc(Cl)c4)o3)c2)cc1OC`, the IC50 in test [1] came out at 15.5 µM.

Consider `Cc1ccc(-c2nnc(-c3cccc(NC(=O)CCCCN4CCOCC4)c3)o2)cc1`, for which the IC50 in test [1] turned out to be 5.01 µM.

On to `Nc1ncnc2c1ncn2[C@@H]1O[C@H](COP(=O)(O)O)[C@@H](O)[C@H]1O` [ADENOSINE PHOSPHATE], for which the IC50 in test [1] is 1.3 µM.

For the molecule `Cc1ccc(-c2nnc(-c3cccc(NC(=O)CCCN4CCOCC4)c3)o2)cc1`, in test [1], the IC50 was determined as 4.96 µM.

With `COc1ccc(CC(=O)Nc2cccc(-c3nnc(-c4ccc(C)cc4)o3)c2)cc1OC`, the response, % of control at 40 µM in the test on Hepatocyte [2] worked out at 103%. Further, the response, % of control at 10 µM in the test with Hepatocyte [3] was 96.7%. Besides, the IC50 in test [1] came out at 4.51 µM. For the same molecule, the response, % of control at 20 µM in the test with Hepatocyte [4] turned out to be 93.5%.

In the case of `CN(C)C(=N)NC(=N)N` [METFORMIN], the response, % of control at 2000 µM in the test on Hepatocyte [5] is 75%.

On to `Cc1ccc(-c2nnc(-c3cccc(NC(=O)CCCCCN4CCOCC4)c3)o2)cc1`, for which the response, % of control at 40 µM in the test with Hepatocyte [2] worked out at 85.2%. The response, % of control at 10 µM in the test on Hepatocyte [3] was determined as 83.3%. The IC50 in test [1] was determined as 2.54 µM. Also, the inhibition entry in the test with Hepatocyte [6] is “inactive”. Moreover, the response, % of control at 20 µM in the test with Hepatocyte [4] stood at 83.6%.
